The values that follow come from ChEMBL document CHEMBL5113393, “Discovery of 2-((2-methylbenzyl)thio)-6-oxo-4-(3,4,5-trimethoxyphenyl)-1,6-dihydropyrimidine-5-carbonitrile as a novel and effective bromodomain and extra-terminal (BET) inhibitor for the treatment of sepsis” (Eur J Med Chem, 2022).

Active and inactive are the calls of the source. The calls are words filed in the database; no cut-off is given here.

In test [1] the target is T1, Bromodomain-containing protein 4 (Homo sapiens, UniProt O60885). In words: Inhibition of BRD4 BD1 (57 to 168 residues) (unknown origin) transfected in Escherichia coli (DE3) using FAM-labeled JQ-1 as fluorescent substrate at 100 uM incubated for 30 mins by competitive fluorescence polarization method relative to control. On the technique in general: Fluorescence polarisation rises when a labelled molecule tumbles more slowly, as on binding a larger partner.

Test [2] deals with T1, Bromodomain-containing protein 4. The test can be described thus: Inhibition of BRD4 BD2 (352 to 457 residues) (unknown origin) transfected in Escherichia coli (DE3) using FAM-labeled JQ-1 as fluorescent substrate at 100 uM incubated for 30 mins by competitive fluorescence polarization method relative to control.
Test [3] has the same target. In words: Inhibition of BRD4 BD1 (unknown origin) using FAM-labeled JQ-1 as fluorescent substrate assessed as inhibition constant incubated for 30 mins by competitive fluorescence polarization method.
For test [4] the target is unchanged. In words: Binding affinity to His-tagged biotinylated BRD4 BD1 (unknown origin) assessed as dissociation constant by biolayer interferometry analysis. Background: Biolayer interferometry detects binding as a change in optical thickness at a sensor tip.
The target is the same in test [5]. In words: Binding affinity to His-tagged biotinylated BRD4 BD1 (unknown origin) assessed as binding constant (Kon) by biolayer interferometry analysis.
Test [6] has the same target. The test can be described thus: Binding affinity to His-tagged biotinylated BRD4 BD1 (unknown origin) assessed as dissociation rate constant by biolayer interferometry analysis.
Test [7] has as its system RAW264.7. In words: Antiinflammatory activity in mouse RAW264.7 cells assessed as inhibition of LPS-induced NO production at 5 uM preincubated for 2 hrs followed by LPS stimulation and measured after 22 hrs by Griess reagent-based assay relative to control. Type of test: functional. The note with it: time 24 hrs. A general note: Nitrite, measured by Griess reagent, commonly stands in for NO production.

Test [8] concerns RAW264.7. In words: Antiinflammatory activity in mouse RAW264.7 cells assessed as inhibition of LPS-induced NO production at 10 uM preincubated for 2 hrs followed by LPS stimulation and measured after 22 hrs by Griess reagent-based assay relative to control. Format: functional. The following applies: time 24 hrs.
In test [9] the target is T1, Bromodomain-containing protein 4. The test can be described thus: Inhibition of BRD4 BD1 (57 to 168 residues) (unknown origin) transfected in Escherichia coli (DE3) using FAM-labeled JQ-1 as fluorescent substrate at 50 uM incubated for 30 mins by competitive fluorescence polarization method relative to control.
For test [10] the target is unchanged. The test can be described thus: Inhibition of BRD4 BD1 (57 to 168 residues) (unknown origin) transfected in Escherichia coli (DE3) using FAM-labeled JQ-1 as fluorescent substrate at 5 uM incubated for 30 mins by competitive fluorescence polarization method relative to control.
For test [11] the target is unchanged. In words: Inhibition of BRD4 BD2 (352 to 457 residues) (unknown origin) transfected in Escherichia coli (DE3) using FAM-labeled JQ-1 as fluorescent substrate at 50 uM incubated for 30 mins by competitive fluorescence polarization method relative to control.
Test [12] shares this target. In words: Inhibition of BRD4 BD2 (352 to 457 residues) (unknown origin) transfected in Escherichia coli (DE3) using FAM-labeled JQ-1 as fluorescent substrate at 5 uM incubated for 30 mins by competitive fluorescence polarization method relative to control.
Another test concerns Mus musculus. The test can be described thus: Protection against LPS-induced sepsis in C57BL/6 mouse model assessed as reduction in hypothermia at 10 mg/kg, ip qd administered for 3 days followed by LPS stimulation for 12 hrs and measured every 1 hr by digital thermometer. Format: functional, organism-based. The following applies: time 84.0 hrs.

As to `COc1cc(-c2nc(SCc3ccccc3Cl)[nH]c(=O)c2C#N)cc(OC)c1OC`, the inhibition came to 84.7% in test [1] and 74.3% in test [2]. Besides, the Ki in test [3] was 1740 nM. In [4], the equilibrium dissociation constant (Kd) came to 756 nM. Further, the K in test [5] is 3.84 10^4/Ms. Further, the Kdiss in test [6] was 2.9 10^-2/s. Moreover, the inhibition at 5 µM in the test on RAW264.7 [7] turned out to be 75.2%. Also, the inhibition at 10 µM in the test with RAW264.7 [8] turned out to be 99.7%.

With `COc1cc(-c2nc(SCc3ccccc3Cl)[nH]c(=O)c2C#N)ccc1OC(F)F`, the inhibition was determined as 54.4% in [1] and 59.2% in test [2].

Consider `N#Cc1c(O)nc(SCc2ccccc2Cl)nc1-c1ccccc1`, for which the inhibition in [9] turned out to be 71.9%; in test [10], 7.01%; in test [11], 83.5%; in test [12], 19.3%; in [1], 47%; in [2] it was 46.5%. For the same molecule, the inhibitory constant (Ki) in [3] was 12300 nM. The Kd in test [4] was determined as 184000 nM. Further, the K in test [5] was 7.28 10^2/Ms. Besides, the Kdiss in test [6] was 1.34 10^-1/s.

With `COc1cc(-c2nc(SCc3ccccc3C(F)(F)F)[nH]c(=O)c2C#N)cc(OC)c1OC`, in test [3], the inhibition constant (Ki) came out at 1190 nM. In addition, the inhibition at 5 µM in the test with RAW264.7 [7] worked out at 62.4%. Also, the inhibition at 10 µM in the test on RAW264.7 [8] was found to be 81%.

Consider `COc1cc(-c2nc(SCc3cc(C)cc(C)c3)[nH]c(=O)c2C#N)cc(OC)c1OC`, for which the inhibition constant (Ki) in [3] came to 1480 nM. The inhibition at 5 µM in the test on RAW264.7 [7] came to 69.3%. The inhibition at 10 µM with RAW264.7 [8] was found to be 92.1%.

For the molecule `COc1cc(OC)cc(-c2nc(SCc3ccccc3Cl)[nH]c(=O)c2C#N)c1`, the figures for the inhibition in [1] and in test [2] were 40.3% and 47.2%, respectively.

For `COc1cc(-c2nc(SCc3ccc(C)cc3)[nH]c(=O)c2C#N)cc(OC)c1OC`, the Ki in test [3] came to 1380 nM. For the same molecule, the inhibition at 5 µM in the test with RAW264.7 [7] is 65.3%. Also, the inhibition at 10 µM with RAW264.7 [8] was determined as 87.4%.

With `Cc1sc2c(c1C)C(c1ccc(Cl)cc1)=N[C@@H](CC(=O)Nc1ccc(O)cc1)c1nnc(C)n1-2` [BIRABRESIB], the inhibition at 5 µM with RAW264.7 [7] was 93.4%. In addition, the inhibition at 10 µM in the test with RAW264.7 [8] turned out to be 99.9%. Besides, in the test with Mus musculus, the result was Active.

As for `COc1ccc(-c2nc(SCc3ccccc3Cl)[nH]c(=O)c2C#N)cc1C`, the inhibition in test [1] was determined as 53.1%; in test [2], 55.1%.

For `COc1cccc(-c2cc(=O)[nH]c(N3CCN(c4ccccc4)CC3)n2)c1`, the inhibition in [9] is 39%; in test [10], 1.56%; in [11] it was 41.7%; in test [12] it was 11%.

Turning to `COc1ccc(-c2nc(SCCc3ccccc3Cl)[nH]c(=O)c2C#N)cc1OC`, the Ki in [3] is 7580 nM.

On to `COC(=O)c1cc(-c2nc(SCc3ccccc3Cl)[nH]c(=O)c2C#N)ccc1OC`, for which the inhibition in test [1] is 42.9%; in test [2] it was 48%.

As for `COc1ccc(-c2nc(SCc3ccccc3Cl)ncc2C#N)cc1OC`, the inhibitory constant (Ki) in test [3] worked out at 4930 nM.

Take `COc1cc(-c2nc(SCc3ccccc3[N+](=O)[O-])[nH]c(=O)c2C#N)cc(OC)c1OC`: the inhibitory constant (Ki) in test [3] stood at 790 nM. Moreover, in the test on RAW264.7 [7], the inhibition at 5 µM came to 29.3%. In the test with RAW264.7 [8], the inhibition at 10 µM was 32.4%.

As to `COc1ccc(-c2nc(SCc3ccccc3Cl)[nH]c(=O)c2C#N)c(OC)c1OC`, the inhibition in test [1] was found to be 53.1%; in [2], 51.7%.

For the molecule `COc1cc(-c2nc(SCc3ccccc3Cl)[nH]c(=O)c2C#N)cc(Cl)c1OC`, the inhibition in test [1] is 59.7%; in [2] it was 59.6%.

Regarding `COc1cc(-c2nc(SCc3cccc(C)c3C)[nH]c(=O)c2C#N)cc(OC)c1OC`, in [3], the Ki was found to be 1730 nM. Moreover, in the test on RAW264.7 [7], the inhibition at 5 µM is 51.8%. In the test with RAW264.7 [8], the inhibition at 10 µM came to 78.2%.

For the molecule `CCOc1cc(-c2nc(SCc3ccccc3Cl)[nH]c(=O)c2C#N)ccc1OC`, the inhibition in test [1] worked out at 65.3%; in [2], 62.4%.

For `CCOc1ccc(-c2nc(SCc3ccccc3Cl)[nH]c(=O)c2C#N)cc1OCC`, the inhibition was found to be 56.8% in test [1] and 55.9% in test [2].

Turning to `COc1ccc(-c2nc(SCc3ccccc3Cl)n(C)c(=O)c2C#N)cc1OC`, in [3], the Ki worked out at 18300 nM. For the same molecule, the inhibition at 5 µM in the test on RAW264.7 [7] came to 5.19%. For the same molecule, the inhibition at 10 µM in the test with RAW264.7 [8] was determined as 14.9%.

For the molecule `COc1cc(-c2nc(SCc3ccccc3Cl)[nH]c(=O)c2C#N)cc(O)c1OC`, the inhibition in [1] worked out at 69.3%; in test [2], 63.4%. The Ki in test [3] was 1950 nM.

`N#Cc1c(-c2ccc3c(c2)OCCO3)nc(SCc2ccccc2Cl)[nH]c1=O`: the inhibition in [1] is 55.5%; in test [2], 53.8%.

Regarding `Oc1ccc(-c2[nH]c(-c3ccccc3O)nc2-c2ccccc2)cc1`, the inhibition in [9] is 53%; in test [10] it was 11.8%; in test [11] it was 17.2%; in test [12], 3.96%.

In the case of `Cc1cccc(OCc2occc2C(=O)N(C)Cc2cc(O)nc3ccccc23)c1`, the inhibition in test [9] was determined as 11.3%; in [10], 3.59%; in test [11] it was 15.1%; in test [12], 4.71%.

`COc1cccc(-c2nc(SCc3ccccc3Cl)[nH]c(=O)c2C#N)c1`: the inhibition came to 45.3% in [1] and 45.1% in [2].

With `CCOc1ccc(-c2nc(SCc3ccccc3Cl)[nH]c(=O)c2C#N)cc1OC`, the values for the inhibition in [1] and in test [2] were 64.7% and 55.7%, respectively.

For `COc1ccc(-c2nc(SCc3ccccc3Cl)[nH]c(=O)c2C#N)cc1`, the inhibition in test [1] turned out to be 44.1%; in test [2], 18.8%.

For the molecule `COc1cc(-c2nc(SCc3cccc(C)c3)[nH]c(=O)c2C#N)cc(OC)c1OC`, in test [3], the Ki came to 1250 nM. Besides, the inhibition at 5 µM with RAW264.7 [7] came to 14.9%. Further, the inhibition at 10 µM in the test with RAW264.7 [8] amounted to 75.5%.

For the molecule `COc1ccc(-c2nc(SCc3ccccc3Cl)[nH]c(=O)c2C#N)cc1OC`, the results for the inhibition in test [1] and in test [2] were 65.1% and 68.7%, respectively. Besides, the Ki in test [3] was determined as 3230 nM.

In the case of `COc1ccc(CNC(=O)C2CCCN(c3nc4c(-c5ccc(C)cc5)csc4c(=O)[nH]3)C2)cc1` (stereo not drawn), the inhibition in [9] was 21.9%; in [10], 2.1%; in test [11], 29.7%; in test [12], 3.8%.

As to `COc1cc(-c2nc(SCc3ccccc3F)[nH]c(=O)c2C#N)cc(OC)c1OC`, in [3], the inhibitory constant (Ki) came out at 870 nM. For the same molecule, in the test with RAW264.7 [7], the inhibition at 5 µM is 33.7%. Besides, the inhibition at 10 µM in the test with RAW264.7 [8] came to 94.1%.

`COc1cccc(-c2nc(SCc3ccccc3Cl)[nH]c(=O)c2C#N)c1OC`: the results for the inhibition in test [1] and in test [2] were 50.7% and 51.3%, respectively.

For the molecule `N#Cc1c(-c2ccc(OC(F)(F)F)cc2)nc(SCc2ccccc2Cl)[nH]c1=O`, the inhibition was 45.8% in test [1] and 17.1% in test [2].

As to `COc1ccccc1NS(=O)(=O)c1cc(-c2n[nH]c(=O)c3ccccc23)ccc1C`, the results for the inhibition in [9], in test [11] and in [12] were 19%, 21.7% and 1.26%, respectively.

For the molecule `COc1ccccc1-c1nc(SCc2ccccc2Cl)[nH]c(=O)c1C#N`, the inhibition in test [1] came to 44.3%; in test [2], 47.5%.

Turning to `COc1ccc(OC)c(-c2nc(SCc3ccccc3Cl)[nH]c(=O)c2C#N)c1`, the inhibition is 51.6% in [1] and 43% in test [2].

As for `COc1ccc(-c2nc(NCc3ccccc3)[nH]c(=O)c2C#N)cc1OC`, the Ki in test [3] amounted to 16300 nM.

For the molecule `Cc1cc2nc(SCC(=O)N(C)c3cccc(Cl)c3)[nH]c(=O)c2[nH]1`, the inhibition is 14.7% in test [9], 4.63% in [10], 17.2% in test [11] and 3.96% in [12].

Consider `CNC(=O)c1cccc(-c2nc(SCc3ccccc3Cl)[nH]c(=O)c2C#N)c1`, for which the inhibition in test [1] is 66.4%; in [2], 65.9%.

Consider `N#Cc1c(-c2ccc3c(c2)OCO3)nc(SCc2ccccc2Cl)[nH]c1=O`, for which the values for the inhibition in test [1] and in [2] were 45.3% and 44.3%, respectively.

A word on the inhibition: it is the relative decrease from the control value, in per cent. The Ki is a measure of affinity in units of concentration, obtained from inhibition or displacement. By Kd is commonly meant the concentration at which binding is half-saturated.
